Experimental data: patent US12258344B2, “Azaaromatic amide derivatives for the treatment of cancer” (SHENZHEN FORWARD PHARMACEUTICALS CO., LTD., priority 2019, dated 2025)

Assays:
Type in all cases: cell-based
[1] = target: T1, BaF3 (EGFR/S768I) (Homo sapiens, UniProt P00533, cells depend on it, form not given); assay: Test 19: EGFR/S768I mutant cell line proliferation test; settings: EGFR S768I and EGFR L861Q (tests 19-20), in words
T1 construct: other: EGFR S768I and EGFR L8
Procedure: Test 19: EGFR/S768I Mutant Cell Line Proliferation Test
(§1) The number of viable cells in the culture was measured according to the protocol described in Promega's Cell Titer-Glo Luminescent cell Viability Assay (Promega catalog number #G7570). 90 μl of cells (3,000 cells/well) were cultured in growth medium in a Corning black transparent bottom 96-well plate, and cultured in a 5% CO2 humidified incubator at 37° C. overnight. The compound serially diluted in 100% DMSO was added to the cells using a pipette, and the cells were incubated for another 72 hours. 100 μl of the mixed Cell Titer-Glo reagent was added to the cells in the 96-well culture plate to lyse the cells and mix gently. Subsequently, the […] was detected on the Envision microplate detector to obtain the data of each compound. Finally, the data was input into a suitable software package (such as Prism) for curve fitting analysis.

[2] = system: NCI-H1975 (EGFR L858R/T790M double mutant); assay: Test 1: EGFR L858R/T790M (EGFR double mutant) cell proliferation test; settings: Homo sapiens; NCI-H1975 cells, 72 hours, Cell Titer-Glo
Procedure: Test 1: EGFR L858R/T790M (EGFR Double Mutant) Cell Proliferation Test
The human lung cell line NCI-H1975 (EGFR L858R/T790M double mutant) was obtained from the American Type Culture Collection. NCI-H1975 cells were cultured in RPMI1640 medium containing 10% fetal bovine serum and 2 mM glutamine. The cells were grown at 37° C. in a humidified incubator with 5% CO2.
as §1, with “(8,000” for “(3,000”

[3] = target: BaF3 (EGFR-D770insSVD) (Homo sapiens, UniProt P00533, DUP768-770, cells depend on it); assay: Test 2: BaF3 (EGFR-D770insSVD) cell proliferation test; settings: 72 hours, Cell Titer-Glo, read-out: Test 2 - IC50
Procedure: Test 2: BaF3 (EGFR-D770insSVD) Cell Proliferation Test
BaF3 (EGFR-D770insSVD) was cultured in RPMI1640 medium containing 10% fetal bovine serum and 2 mM glutamine. The cells were grown at 37° C. in a humidified incubator with 5% CO2.
as §1

[4] = target: BaF3 (EGFR-A763insFQEA) (Homo sapiens, UniProt P00533, INS763FQEA, cells depend on it); assay: Test 3: BaF3 (EGFR-A763insFQEA) cell proliferation test; settings: 72 hours, Cell Titer-Glo, read-out: Test 3 - IC50
Procedure: Test 3: BaF3 (EGFR-A763insFOEA) Cell Proliferation Test
BaF3 (EGFR-A763insFQEA) was cultured in RPMI1640 medium containing 10% fetal bovine serum and 2 mM glutamine. The cells were grown at 37° C. in a humidified incubator with 5% CO2.
as §1

[5] = target: BaF3 (EGFR-V769insASV) (Homo sapiens, UniProt P00533, DUP767-769, cells depend on it); assay: Test 4: BaF3 (EGFR-V769insASV) cell proliferation test; settings: 72 hours, Cell Titer-Glo, read-out: Test 4 - IC50
Procedure: Test 4: BaF3 (EGFR-V769insASV) Cell Proliferation Test
BaF3 (EGFR-V769insASV) was cultured in RPMI1640 medium containing 10% fetal bovine serum and 2 mM glutamine. The cells were grown at 37° C. in a humidified incubator with 5% CO2.
as §1

[6] = target: BaF3 (EGFR-N771insH) (Homo sapiens, UniProt P00533, INS771H, cells depend on it); assay: Test 5: BaF3 (EGFR-N771insH) cell proliferation test; settings: 72 hours, Cell Titer-Glo, read-out: Test 5 - IC50
Procedure: Test 5: BaF3 (EGFR-N771insH) Cell Proliferation Test
BaF3 (EGFR-N771insH) was cultured in RPMI1640 medium containing 10% fetal bovine serum and 2 mM glutamine. The cells were grown at 37° C. in a humidified incubator with 5% CO2.
as §1

[7] = target: BaF3 (EGFR-D770insNPG) (Homo sapiens, UniProt P00533, INS772GNP, cells depend on it); assay: Test 6: BaF3 (EGFR-D770insNPG) cell proliferation test; settings: 72 hours, Cell Titer-Glo, read-out: Test 6 - IC50
Procedure: Test 6: BaF3 (EGFR-D770insNPG) Cell Proliferation Test
BaF3 (EGFR-D770insNPG) was cultured in RPMI1640 medium containing 10% fetal bovine serum and 2 mM glutamine. The cells were grown at 37° C. in a humidified incubator with 5% CO2.
as §1

[8] = target: BaF3 (EGFR-S768I) (Homo sapiens, UniProt P00533, S768I, cells depend on it); assay: Test 7: BaF3 (EGFR-S768I) cell proliferation test; settings: 72 hours, Cell Titer-Glo, read-out: Test 7 - IC50
Procedure: Test 7: BaF3 (EGFR-S768I) Cell Proliferation Test
BaF3 (EGFR-S768I) was cultured in RPMI1640 medium containing 10% fetal bovine serum and 2 mM glutamine. The cells were grown at 37° C. in a humidified incubator with 5% CO2.
as §1

[9] = target: BaF3 (EGFR-L861Q) (Homo sapiens, UniProt P00533, L861Q, cells depend on it); assay: Test 8: BaF3 (EGFR-L861Q) cell proliferation test; settings: 72 hours, Cell Titer-Glo, read-out: Test 8 - IC50
Procedure: Test 8: BaF3 (EGFR-L8610) Cell Proliferation Test
BaF3 (EGFR-L861Q) was cultured in RPMI1640 medium containing 10% fetal bovine serum and 2 mM glutamine. The cells were grown at 37° C. in a humidified incubator with 5% CO2.
as §1

[10] = target: BaF3 (HER2-A775insYVMA) (Homo sapiens, UniProt P04626, DUP772-775, cells depend on it); assay: Test 9: BaF3 (HER2-A775insYVMA) cell proliferation test; settings: 72 hours, Cell Titer-Glo, read-out: Test 9 - IC50
Sequence of BaF3 (HER2-A775insYVMA) (P04626 with tags, fused parts or gaps DUP772-775): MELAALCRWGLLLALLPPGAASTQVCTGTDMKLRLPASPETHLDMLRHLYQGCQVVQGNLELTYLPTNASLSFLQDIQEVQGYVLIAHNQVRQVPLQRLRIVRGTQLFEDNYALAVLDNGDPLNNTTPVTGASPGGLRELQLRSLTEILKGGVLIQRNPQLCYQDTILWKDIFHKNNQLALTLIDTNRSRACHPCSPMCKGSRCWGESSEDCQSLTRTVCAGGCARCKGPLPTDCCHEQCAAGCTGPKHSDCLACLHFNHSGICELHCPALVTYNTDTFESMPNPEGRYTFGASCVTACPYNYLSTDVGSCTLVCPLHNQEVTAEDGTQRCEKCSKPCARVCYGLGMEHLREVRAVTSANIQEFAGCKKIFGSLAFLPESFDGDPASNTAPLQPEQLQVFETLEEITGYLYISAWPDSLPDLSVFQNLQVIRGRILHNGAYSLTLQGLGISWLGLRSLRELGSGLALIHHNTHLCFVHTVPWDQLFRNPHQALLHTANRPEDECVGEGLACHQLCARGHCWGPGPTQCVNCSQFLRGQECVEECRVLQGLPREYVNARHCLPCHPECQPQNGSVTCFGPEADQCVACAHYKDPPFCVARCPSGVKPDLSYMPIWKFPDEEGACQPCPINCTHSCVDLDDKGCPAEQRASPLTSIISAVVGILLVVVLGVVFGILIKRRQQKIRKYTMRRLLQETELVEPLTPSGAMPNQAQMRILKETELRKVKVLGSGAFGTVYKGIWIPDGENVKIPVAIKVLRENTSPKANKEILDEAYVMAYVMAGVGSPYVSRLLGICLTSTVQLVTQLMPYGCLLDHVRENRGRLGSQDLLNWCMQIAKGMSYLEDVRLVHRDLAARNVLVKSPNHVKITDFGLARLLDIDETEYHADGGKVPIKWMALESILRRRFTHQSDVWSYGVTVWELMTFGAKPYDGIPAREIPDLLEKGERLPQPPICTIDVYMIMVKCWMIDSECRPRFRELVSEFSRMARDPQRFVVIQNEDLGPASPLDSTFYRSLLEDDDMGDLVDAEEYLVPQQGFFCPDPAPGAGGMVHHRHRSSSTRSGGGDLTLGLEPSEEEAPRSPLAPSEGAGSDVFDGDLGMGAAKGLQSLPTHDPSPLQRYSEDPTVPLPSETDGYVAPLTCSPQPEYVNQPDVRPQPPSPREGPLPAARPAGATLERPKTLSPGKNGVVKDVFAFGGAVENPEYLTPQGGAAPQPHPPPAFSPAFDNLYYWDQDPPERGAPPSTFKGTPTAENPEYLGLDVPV
Procedure: Test 9: BaF3 (HER2-A775insYVMA) Cell Proliferation Test
BaF3 (HER2-A775insYVMA) was cultured in RPMI1640 medium containing 10% fetal bovine serum and 2 mM glutamine. The cells were grown at 37° C. in a humidified incubator with 5% CO2.
as §1

[11] = target: BaF3 (HER2-P780insGSP) (Homo sapiens, UniProt P04626, DUP778-780, cells depend on it); assay: Test 10: BaF3 (HER2-P780insGSP) cell proliferation test; settings: 72 hours, Cell Titer-Glo, read-out: Test 10 - IC50
Sequence of BaF3 (HER2-P780insGSP) (P04626 with tags, fused parts or gaps DUP778-780): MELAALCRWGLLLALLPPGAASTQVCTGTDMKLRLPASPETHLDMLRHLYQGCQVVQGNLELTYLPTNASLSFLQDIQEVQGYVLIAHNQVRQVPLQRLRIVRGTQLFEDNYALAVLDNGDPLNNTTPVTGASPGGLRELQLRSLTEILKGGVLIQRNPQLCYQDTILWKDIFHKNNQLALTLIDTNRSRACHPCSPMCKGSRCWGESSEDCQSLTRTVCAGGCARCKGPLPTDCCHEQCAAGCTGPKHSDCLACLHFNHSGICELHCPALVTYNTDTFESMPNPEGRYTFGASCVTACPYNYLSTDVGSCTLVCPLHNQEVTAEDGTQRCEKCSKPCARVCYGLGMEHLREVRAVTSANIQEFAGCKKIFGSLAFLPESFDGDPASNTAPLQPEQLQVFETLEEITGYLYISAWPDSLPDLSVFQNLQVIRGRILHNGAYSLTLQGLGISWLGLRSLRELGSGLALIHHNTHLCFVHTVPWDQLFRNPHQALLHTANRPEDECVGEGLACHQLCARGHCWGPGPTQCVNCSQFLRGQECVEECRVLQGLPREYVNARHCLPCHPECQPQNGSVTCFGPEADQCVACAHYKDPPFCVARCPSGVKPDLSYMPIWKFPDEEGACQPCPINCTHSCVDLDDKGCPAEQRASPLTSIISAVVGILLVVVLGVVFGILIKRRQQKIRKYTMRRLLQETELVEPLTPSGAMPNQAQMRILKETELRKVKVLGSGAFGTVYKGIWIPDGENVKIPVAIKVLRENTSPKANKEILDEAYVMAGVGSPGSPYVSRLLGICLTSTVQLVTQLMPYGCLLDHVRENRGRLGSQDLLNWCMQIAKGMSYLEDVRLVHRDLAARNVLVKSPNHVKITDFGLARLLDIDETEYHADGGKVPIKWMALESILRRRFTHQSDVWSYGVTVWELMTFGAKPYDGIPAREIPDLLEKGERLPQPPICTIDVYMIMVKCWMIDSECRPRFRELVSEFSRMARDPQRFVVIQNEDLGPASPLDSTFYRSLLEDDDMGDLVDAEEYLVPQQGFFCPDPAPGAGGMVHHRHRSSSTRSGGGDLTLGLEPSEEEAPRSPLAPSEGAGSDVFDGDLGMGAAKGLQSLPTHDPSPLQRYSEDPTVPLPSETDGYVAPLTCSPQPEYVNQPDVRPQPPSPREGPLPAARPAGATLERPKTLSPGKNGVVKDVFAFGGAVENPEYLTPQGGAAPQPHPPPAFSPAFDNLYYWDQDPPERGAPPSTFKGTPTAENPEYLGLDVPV
Procedure: Test 10: BaF3 (HER2-P780insGSP) Cell Proliferation Test
BaF3 (HER2-P780insGSP) was cultured in RPMI1640 medium containing 10% fetal bovine serum and 2 mM glutamine. The cells were grown at 37° C. in a humidified incubator with 5% CO2.
as §1

[12] = target: BaF3 (HER2-G776insVC) (Homo sapiens, UniProt P04626, cells depend on it, form not given); assay: Test 11: BaF3 (HER2-G776insVC) cell proliferation test; settings: 72 hours, Cell Titer-Glo, read-out: Test 11 - IC50
Sequence of BaF3 (HER2-G776insVC) (P04626 with tags, fused parts or gaps DELINS776-776VC): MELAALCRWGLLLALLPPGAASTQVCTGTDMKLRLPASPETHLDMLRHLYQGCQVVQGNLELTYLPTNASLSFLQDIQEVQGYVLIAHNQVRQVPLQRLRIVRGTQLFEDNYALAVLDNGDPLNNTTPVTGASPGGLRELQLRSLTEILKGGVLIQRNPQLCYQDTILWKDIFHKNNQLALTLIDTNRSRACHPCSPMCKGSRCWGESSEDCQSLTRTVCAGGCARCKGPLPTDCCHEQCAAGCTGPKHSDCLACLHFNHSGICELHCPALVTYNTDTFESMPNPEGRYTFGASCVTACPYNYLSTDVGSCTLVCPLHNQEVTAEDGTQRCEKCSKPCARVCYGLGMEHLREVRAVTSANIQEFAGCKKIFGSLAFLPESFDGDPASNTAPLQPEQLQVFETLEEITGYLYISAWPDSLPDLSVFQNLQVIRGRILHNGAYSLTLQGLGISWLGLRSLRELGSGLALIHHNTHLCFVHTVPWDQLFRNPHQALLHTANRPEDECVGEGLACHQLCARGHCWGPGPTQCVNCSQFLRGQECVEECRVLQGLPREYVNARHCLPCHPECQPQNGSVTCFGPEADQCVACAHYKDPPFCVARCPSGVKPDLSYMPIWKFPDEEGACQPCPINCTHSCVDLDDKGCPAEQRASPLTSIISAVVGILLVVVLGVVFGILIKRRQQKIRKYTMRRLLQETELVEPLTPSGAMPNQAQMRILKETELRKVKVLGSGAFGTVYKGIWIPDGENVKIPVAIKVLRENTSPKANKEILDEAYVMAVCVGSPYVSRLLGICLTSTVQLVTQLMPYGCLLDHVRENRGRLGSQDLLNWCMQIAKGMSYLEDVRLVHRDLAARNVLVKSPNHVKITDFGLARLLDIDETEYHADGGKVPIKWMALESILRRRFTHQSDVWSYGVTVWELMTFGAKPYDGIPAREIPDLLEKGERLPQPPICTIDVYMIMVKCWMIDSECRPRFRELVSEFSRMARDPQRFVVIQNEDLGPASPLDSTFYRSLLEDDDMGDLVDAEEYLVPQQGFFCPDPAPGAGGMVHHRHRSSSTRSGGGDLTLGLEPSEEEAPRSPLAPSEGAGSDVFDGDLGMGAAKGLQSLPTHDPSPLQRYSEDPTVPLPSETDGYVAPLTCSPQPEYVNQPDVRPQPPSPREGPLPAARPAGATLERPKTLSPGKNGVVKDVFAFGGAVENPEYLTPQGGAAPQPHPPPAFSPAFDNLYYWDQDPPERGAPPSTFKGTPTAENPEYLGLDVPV
Procedure: Test 11: BaF3 (HER2-G776insVC) Cell Proliferation Test
The engineered cell line BaF3 (HER2-G776insVC) was constructed by the inventor himself (for the method of cell line construction, see Jingrui Jiang et al., Cancer Res. 2005 Oct. 1; 65 (19): 8964-74; Jacqulyne P. Robichaux et al., Nat Med. 2018 May; 24 (5): 638-646). BaF3 (HER2-G776insVC) was cultured in RPMI1640 medium containing 10% fetal bovine serum and 2 mM glutamine. The cells were grown at 37° C. in a humidified incubator with 5% CO2.
as §1

[13] = target: T2, BaF3 (EGFR/D770insSVD) (Homo sapiens, UniProt P00533, cells depend on it, form not given); assay: Test 13: EGFR exon 20 inserted D770insSVD cell proliferation test; settings: A763insFQEA, V769insASV, D770insSVD (tests 13-15), in words
T2 construct: other: A763insFQEA, V769ins
Procedure: Test 13: EGFR Exon 20 Inserted D770insSVD Cell Proliferation Test
as §1

| Structure (SMILES) | IC50 [2] [nM] | GI50 [3] [nM] | GI50 [4] [nM] | GI50 [5] [nM] | GI50 [6] [nM] | GI50 [7] [nM] | GI50 [8] [nM] | GI50 [9] [nM] | GI50 [10] [nM] | GI50 [11] [nM] | GI50 [12] [nM] | activity compared with Osimertinib (AZD9291) against EGFR S768I and EGFR L861Q mutations [1] | cell activity compared with Osimertinib (AZD9291) against EGFR exon 20 insertion mutations [13] |
| --- | --- | --- | --- | --- | --- | --- | --- | --- | --- | --- | --- | --- | --- |
| C=CC(=O)Nc1cc(Nc2nccc(-c3cn(C)c4ccccc34)n2)c(OCC(F)(F)F)nc1N(C)CCN(C)C.CS(=O)(=O)O [Compound 31] |  |  |  |  |  |  |  |  |  |  |  | superior activity over Osimertinib (AZD9291) |  |
| C=CC(=O)Nc1cc(Nc2nccc(-c3cn(C)c4ccccc34)n2)c(OCC(F)(F)F)nc1N(C)CCN(C)C.Cl [Compound 32] |  |  |  |  |  |  |  |  |  |  |  | superior activity over Osimertinib (AZD9291) |  |
| C=CC(=O)Nc1cc(Nc2ncnc(-c3cn(C)c4ccc(OC)cc34)n2)c(OC)cc1N(C)CCN(C)C [Example 8, N-(2-((2-(dimethylamino)ethyl)(methyl)amino)-4-methoxy-5-((4-(5-methoxy-1-methyl-1H-indol-3-yl)-1,3,5-triazin-2-yl)amino)phenyl)acrylamide] | 39.6 | 30 | 16.6 | 57.6 | 18.2 | 22.8 | 7.82 | 5.82 | 21.8 | 11.6 | 2.73 |  |  |
| C=CC(=O)Nc1cc(Nc2ncnc(-c3cn(C)c4ccc(Cl)cc34)n2)c(OC)cc1N(C)CCN(C)C [Example 9] | 15.3 | 48.7 | 14.3 | 45.5 | 15.3 | 12.8 | 9.17 | 5.01 | 13.9 | 7.59 | 1.8 |  |  |

Continued, in another order:

| IC50 [2] [nM] | GI50 [3] [nM] | GI50 [4] [nM] | GI50 [5] [nM] | GI50 [6] [nM] | GI50 [7] [nM] | GI50 [8] [nM] | GI50 [9] [nM] | GI50 [10] [nM] | GI50 [11] [nM] | GI50 [12] [nM] | Structure (SMILES) | activity compared with Osimertinib (AZD9291) against EGFR S768I and EGFR L861Q mutations [1] | cell activity compared with Osimertinib (AZD9291) against EGFR exon 20 insertion mutations [13] |
| --- | --- | --- | --- | --- | --- | --- | --- | --- | --- | --- | --- | --- | --- |
| 183 | 566 | 183 | 466 | 146 | 181 | 44.5 | 36.1 | 45.2 | 32.6 | 9.56 | C=CC(=O)Nc1cc(Nc2ncnc(-c3cn(C)c4cc(Cl)c(OC)cc34)n2)c(OC)cc1N(C)CCN(C)C [Example 10] |  | significant superior cell activity over Osimertinib (AZD9291) |
| 66.3 | 183 | 57.3 | 121 | 82.5 | 75.3 | 29.4 | 17.2 | 98.2 | 47.8 | 11.4 | C=CC(=O)Nc1cc(Nc2ncnc(Oc3ccc(Cl)c(OC)c3)n2)c(OC)cc1N(C)CCN(C)C [Example 12] |  |  |
| 42.1 | 88.7 | 43.1 | 88.6 | 35.6 | 40.9 | 13.6 | 10.8 | 85.2 | 29.6 | 8.36 | C=CC(=O)Nc1cc(Nc2ncnc(Oc3ccc(Cl)c(OC)c3)n2)c(OC(F)F)cc1N(C)CCN(C)C [Example 13] |  |  |
